Measurements reported in patent US11402382B2, “Diagnostic and therapeutic methods for cancer” (Genentech, Inc., priority 2017, dated 2022).
Read-outs that look alike come from different tables or passages of the source.

Columns and labels:
[1] = IMmotion150 phase 2 randomized trial: safety (adverse events); settings: for AEs leading to death: events: footnote a of Table 23; for Arthralgia / Constipation / Cough / Decreased appetite / Diarrhea / Dysgeusia / Epistaxis / Fatigue / Headache / Hypertension / Infections and infestations / Mucosal inflammation / Nausea / Palmar-plantar erythrodysesthesia syndrome / Proteinuria / Pruritus / Pyrexia / Rash / Stomatitis / Vomiting: AEs occurring in ≥20% of patients in any arm; for Treatment-related AE: all grade;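 for all read-outs here: Open-label multicenter randomized phase 2 trial with three treatment arms, safety set restricted to patients who actually received study drug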
Method: (§1) Study treatment consisted of atezolizumab 1200 mg fixed intravenous dose +bevacizumab 15 mg/kg every three weeks, atezolizumab 1200 mg fixed intravenous dose every three weeks, or sunitinib 50 mg/day orally for four weeks followed by two weeks of rest. On disease progression (as assessed by the investigator per RECIST v1.1), patients randomized to atezolizumab monotherapy or sunitinib had the option to cross over and receive the atezolizumab+bevacizumab combination in some regions (option was not available in Europe). In the absence of unacceptable toxicity, treatment with the combination continued until evidence of progressive disease. Where permitted, patients in the atezolizumab-containing arms could continue to be treated beyond disease progression per RECIST v1.1 until lack of clinical benefit; those in non-European nations could cross over to atezolizumab+bevacizumab therapy at any time after disease progression per RECIST v1.1, provided all eligibility criteria were met.

[2] = in vivo
Method: as §1

[3] = test system: previously untreated metastatic renal cell carcinoma (mRCC); test: IMmotion150 phase 2 randomized trial: efficacy (PFS, ORR per RECIST v1.1, IRF); type: in vivo, human; settings: IRF-assessed
Method: A phase II clinical study, IMmotion150 (NCT01984242), was performed to evaluate the safety and tolerability of atezolizumab, alone or in combination with bevacizumab, as compared to sunitinib in patients with previously untreated metastatic renal cell carcinoma (mRCC). Integrated tumor genomic analyses were also performed to correlate molecular biomarkers with observed clinical outcomes in the phase II study.
The primary objective of this phase 2 trial was to evaluate the efficacy of atezolizumab+bevacizumab and atezolizumab monotherapy compared with sunitinib.
The original primary endpoint was PFS per Response Evaluation Criteria In Solid Tumors version 1.1 (RECIST v1.1) via IRF in the ITT population. Although patients were stratified by ≥5% PD-L1 expression on IC, the definition of PD-L1 positivity was revised from ≥5% to ≥1% PD-L1 expression on IC, based on phase 1a data, and the study protocol was amended to create PD-L1 expression on IC as a coprimary endpoint of IRF-assessed PFS. […] Secondary endpoints included investigator (INV)-assessed PFS, ORR, and duration of response (DOR) per RECIST v1.1, overall survival (OS), patient-reported outcomes, and safety. Key exploratory objectives included evaluation of the relationship between the expression of predictive and prognostic exploratory biomarkers and their association with disease status and efficacy as defined by ORR and PFS.
During the study, each cycle was six weeks (42 days) in duration, and data on tumor measurement and survival status were collected for evaluation of PFS, milestone PFS (at 24, 52, and 76 weeks), OS, and ORR per RECIST v1.1. Tumor assessments occurred at baseline and every 12 weeks ±five business days after Cycle 1, Day 1, or more frequently if clinically indicated. Patients who discontinued first-line treatment or crossover treatment were followed up for survival approximately every three months until death, withdrawal of consent, loss to follow-up, or study termination. Patients who discontinued study treatment for reasons other than disease progression (e.g., toxicity) continued to undergo scheduled tumor assessments (every 12 weeks) until death, disease progression per RECIST v1.1, withdrawal of consent, or study termination, whichever occurred first.
Kaplan-Meier methodology was used to estimate the median PFS for each treatment arm, and Kaplan-Meier curves were produced. The primary analysis was triggered when 140 INV-PFS events occurred among patients treated with atezolizumab+bevacizumab and with sunitinib or among patients treated with atezolizumab alone and with sunitinib, whichever occurred later. The HR estimates and their 95% CIs were determined by using the stratified Cox proportional hazards model. The stratification factors included prior nephrectomy, tumor PD-L1 status, and MSKCC score and were determined based on data from the electronic case report form; if such data were missing, data collected by the IxRS at the time of randomization were used. Tumor specimens were prospectively tested for PD-L1 expression on ICs by a central laboratory using the SP142 IHC assay (VENTANA, Tucson, Ariz.). IC staining was defined as follows: any discernible PD-L1 staining of any intensity in IC covering <1% or absent (ICO), between ≥1% and <5% (IC1), between ≥5% and <10% (IC2), or ≥10% (IC3) of tumor area occupied by tumor cells, associated intratumoral, and contiguous peri-tumoral desmoplastic stroma.

[4] = PD-L1+ population (≥1% PD-L1 expression on IC)
[5] = AE of special interest, All Grade
[6] = AE of special interest, Grade 3/4

Question: For “Atezo: anti-PD-L1 antibody atezolizumab (CAS Registry Number: 1422185-06-5), Genentech, also known as MPDL3280A”, which “AEs leading to death” value ([1]; % of patients) is on record?
Answer: (2%)

Question: And the “AEs leading to death: events” value [1]?
Answer: hematophagic hitiocytosis, lower respiratory tract infection

Question: What about the “AEs leading to death” value ([1]; number of patients) of the same compound?
Answer: 2 n

Question: And the “Treatment-related AEs leading to death” value ([1]; number of patients)?
Answer: 0 n

Question: What about the Colitis [2] of the same compound?
Answer: 0 n

Question: And the “Decreased blood cortisol/adrenal insufficiency” value [2]?
Answer: 0 n

Question: What about the Pneumonitis [2] of the same compound?
Answer: 0 n

Question: What about the TSH decreased/hypothyroidism [2] of the same compound?
Answer: 0 n

Question: And the TSH increased/hyperthyroidism [2]?
Answer: 0 n

Question: And the “treatment-related AE leading to discontinuation of treatment: demyelination” value [2]?
Answer: 1%

Question: And the “treatment-related AE leading to discontinuation of treatment: nephritis” value [2]?
Answer: 1%

Question: What about the “treatment-related AE leading to discontinuation of treatment: pancreatitis” value [2] of the same compound?
Answer: 1%

Question: And the “Stratified PFS HR (95% CI) vs sunitinib” value ([3]; ITT population)?
Answer: 1.19

Question: What about the “complete response (CR)” value ([3]; ITT population) of the same compound?
Answer: 11%

Question: And the “median progression-free survival (PFS)” value ([3]; ITT population)?
Answer: 6.1 months

Question: What about the “objective response rate (ORR)” value ([3]; ITT population) of the same compound?
Answer: 25%

Question: And the “partial response (PR)” value ([3]; ITT population)?
Answer: 14%

Question: What about the “Stratified PFS HR (95% CI) vs sunitinib” value ([3]; PD-L1+ (PD-L1 IHC IC1/2/3, ≥1%)) of the same compound?
Answer: 1.03

Question: And the “complete response (CR)” value ([3]; PD-L1+ patients)?
Answer: 15%

Question: And the “objective response rate (ORR)” value ([3]; PD-L1+ patients)?
Answer: 28%

Question: What about the “partial response (PR)” value ([3]; PD-L1+ patients) of the same compound?
Answer: 13%

Question: What about the “median progression-free survival (PFS)” value [3, 4] of the same compound?
Answer: 5.5 months

Question: And the “Stratified PFS HR (95% CI) vs sunitinib” value ([3]; PD-L1 IHC IC2/3 (≥5%))?
Answer: 0.64

Question: For `CCN(CC)CCNC(=O)c1c(C)[nH]c(/C=C2\C(=O)Nc3ccc(F)cc32)c1C` [Sunitinib, N-[2-(Diethylamino)ethyl]-5-[(Z)-(5-fluoro-2-oxo-1,2-dihydro-3H-indol-3-ylidene)methyl]-2,4-dimethyl-1H-pyrrole-3-carboxamide], which “AEs leading to death” value ([1]; % of patients) is on record?
Answer: (2%)

Question: And the “AEs leading to dose modification or interruption” value ([1]; % of patients)?
Answer: (70%)

Question: What about the “AEs leading to withdrawal from treatment” value ([1]; % of patients) of the same compound?
Answer: (10%)

Question: And the “Grade 3/4 AEs, any cause” value ([1]; % of patients)?
Answer: (69%)

Question: What about the “Treatment-related AEs leading to death” value ([1]; % of patients) of the same compound?
Answer: (2%)

Question: What about the “Treatment-related AEs leading to withdrawal from treatment” value ([1]; % of patients) of the same compound?
Answer: (9%)

Question: What about the “Treatment-related grade 3/4 AEs” value ([1]; % of patients) of the same compound?
Answer: (57%)

Question: What about the “Treatment-related AEs leading to withdrawal from treatment” value ([1]; % of patients, listed as sunitinib) of the same compound?
Answer: 9%

Question: What about the “Decreased blood cortisol/adrenal insufficiency” value [1, 5] of the same compound?
Answer: 0 n

Question: And the Pneumonitis [1, 5]?
Answer: 0 n

Question: What about the Colitis [1, 6] of the same compound?
Answer: 0 n

Question: And the “Decreased blood cortisol/adrenal insufficiency” value [1, 6]?
Answer: 0 n

Question: What about the Pneumonitis [1, 6] of the same compound?
Answer: 0 n

Question: What about the TSH decreased/hypothyroidism [1, 6] of the same compound?
Answer: 0 n

Question: What about the TSH increased/hyperthyroidism [1, 6] of the same compound?
Answer: 0 n

Question: What about the Arthralgia [1] of the same compound?
Answer: (18.0%)

Question: And the Constipation [1]?
Answer: (30.0%)

Question: What about the Cough [1] of the same compound?
Answer: (25.0%)

Question: And the Decreased appetite [1]?
Answer: (29.0%)

Question: And the Diarrhea [1]?
Answer: (59.0%)

Question: What about the Dysgeusia [1] of the same compound?
Answer: (30.0%)

Question: And the Epistaxis [1]?
Answer: (12.0%)

Question: And the Fatigue [1]?
Answer: (70.0%)

Question: What about the Headache [1] of the same compound?
Answer: (23.0%)

Question: What about the Hypertension [1] of the same compound?
Answer: (35.0%)

Question: What about the Infections and infestations [1] of the same compound?
Answer: (32.0%)

Question: And the Mucosal inflammation [1]?
Answer: (33.0%)

Question: And the Nausea [1]?
Answer: (45.0%)

Question: What about the Palmar-plantar erythrodysesthesia syndrome [1] of the same compound?
Answer: (40.0%)

Question: What about the Proteinuria [1] of the same compound?
Answer: (9.0%)

Question: And the Pruritus [1]?
Answer: (10.0%)

Question: And the Pyrexia [1]?
Answer: (12.0%)

Question: What about the Rash [1] of the same compound?
Answer: (13.0%)

Question: What about the Stomatitis [1] of the same compound?
Answer: (25.0%)

Question: And the Vomiting [1]?
Answer: (20.0%)

Question: What about the Arthralgia ([1]; number of patients) of the same compound?
Answer: 18

Question: And the Constipation ([1]; number of patients)?
Answer: 30

Question: And the Cough ([1]; number of patients)?
Answer: 25

Question: What about the Decreased appetite ([1]; number of patients) of the same compound?
Answer: 29

Question: And the Diarrhea ([1]; number of patients)?
Answer: 59

Question: And the Dysgeusia ([1]; number of patients)?
Answer: 30

Question: And the Epistaxis ([1]; number of patients)?
Answer: 12

Question: And the Fatigue ([1]; number of patients)?
Answer: 70

Question: What about the Headache ([1]; number of patients) of the same compound?
Answer: 23

Question: And the Hypertension ([1]; number of patients)?
Answer: 35

Question: And the Infections and infestations ([1]; number of patients)?
Answer: 32

Question: What about the Mucosal inflammation ([1]; number of patients) of the same compound?
Answer: 33

Question: What about the Nausea ([1]; number of patients) of the same compound?
Answer: 45

Question: What about the Palmar-plantar erythrodysesthesia syndrome ([1]; number of patients) of the same compound?
Answer: 40

Question: And the Proteinuria ([1]; number of patients)?
Answer: 9

Question: And the Pruritus ([1]; number of patients)?
Answer: 10

Question: What about the Pyrexia ([1]; number of patients) of the same compound?
Answer: 12

Question: What about the Rash ([1]; number of patients) of the same compound?
Answer: 13

Question: And the Stomatitis ([1]; number of patients)?
Answer: 25

Question: And the Vomiting ([1]; number of patients)?
Answer: 20

Question: And the “Treatment-related AE” value ([1]; % of patients)?
Answer: (96%)

Question: What about the “Treatment-related AE” value ([1]; number of patients) of the same compound?
Answer: 96 n

Question: What about the “AEs leading to death: events” value [1] of the same compound?
Answer: sudden death (related), intestinal hemorrhage (related)

Question: What about the “related AE leading to treatment discontinuation: increased blood creatinine” value ([1]; in vivo) of the same compound?
Answer: 2%

Question: And the “related AE leading to treatment discontinuation: palmar-plantar erythrodysesthesia syndrome” value ([1]; in vivo)?
Answer: 2%

Question: What about the “AEs leading to death” value ([1]; number of patients) of the same compound?
Answer: 2 n

Question: And the “AEs leading to dose modification or interruption” value ([1]; number of patients)?
Answer: 70 n

Question: And the “AEs leading to withdrawal from treatment” value ([1]; number of patients)?
Answer: 10 n

Question: What about the “All-grade AEs, any cause” value ([1]; number of patients) of the same compound?
Answer: 99 n

Question: What about the “Grade 3/4 AEs, any cause” value ([1]; number of patients) of the same compound?
Answer: 69 n

Question: And the “Treatment-related AEs leading to death” value ([1]; number of patients)?
Answer: 2 n

Question: And the “Treatment-related AEs leading to withdrawal from treatment” value ([1]; number of patients)?
Answer: 9 n

Question: What about the “Treatment-related grade 3/4 AEs” value ([1]; number of patients) of the same compound?
Answer: 57 n

Question: And the “complete response (CR)” value ([3]; ITT population)?
Answer: 5%

Question: And the “median progression-free survival (PFS)” value ([3]; ITT population)?
Answer: 8.4 months

Question: And the “objective response rate (ORR)” value ([3]; ITT population)?
Answer: 29%

Question: What about the “partial response (PR)” value ([3]; ITT population) of the same compound?
Answer: 24%

Question: And the “complete response (CR)” value ([3]; PD-L1+ patients)?
Answer: 7%

Question: What about the “objective response rate (ORR)” value ([3]; PD-L1+ patients) of the same compound?
Answer: 27%

Question: And the “partial response (PR)” value ([3]; PD-L1+ patients)?
Answer: 20%

Question: And the “median progression-free survival (PFS)” value [3, 4]?
Answer: 7.8 months
